From US11427548B2 (Arvinas Operations, Inc., priority 2015, dated 2022)
Where two headings read alike, the source gives them in different places.

Molecular target: T1, Androgen Receptor (Homo sapiens, UniProt P10275)
T1 construct: endogenous in cells; host or cells: VCaP cells
T1 sequence (P10275 1-920): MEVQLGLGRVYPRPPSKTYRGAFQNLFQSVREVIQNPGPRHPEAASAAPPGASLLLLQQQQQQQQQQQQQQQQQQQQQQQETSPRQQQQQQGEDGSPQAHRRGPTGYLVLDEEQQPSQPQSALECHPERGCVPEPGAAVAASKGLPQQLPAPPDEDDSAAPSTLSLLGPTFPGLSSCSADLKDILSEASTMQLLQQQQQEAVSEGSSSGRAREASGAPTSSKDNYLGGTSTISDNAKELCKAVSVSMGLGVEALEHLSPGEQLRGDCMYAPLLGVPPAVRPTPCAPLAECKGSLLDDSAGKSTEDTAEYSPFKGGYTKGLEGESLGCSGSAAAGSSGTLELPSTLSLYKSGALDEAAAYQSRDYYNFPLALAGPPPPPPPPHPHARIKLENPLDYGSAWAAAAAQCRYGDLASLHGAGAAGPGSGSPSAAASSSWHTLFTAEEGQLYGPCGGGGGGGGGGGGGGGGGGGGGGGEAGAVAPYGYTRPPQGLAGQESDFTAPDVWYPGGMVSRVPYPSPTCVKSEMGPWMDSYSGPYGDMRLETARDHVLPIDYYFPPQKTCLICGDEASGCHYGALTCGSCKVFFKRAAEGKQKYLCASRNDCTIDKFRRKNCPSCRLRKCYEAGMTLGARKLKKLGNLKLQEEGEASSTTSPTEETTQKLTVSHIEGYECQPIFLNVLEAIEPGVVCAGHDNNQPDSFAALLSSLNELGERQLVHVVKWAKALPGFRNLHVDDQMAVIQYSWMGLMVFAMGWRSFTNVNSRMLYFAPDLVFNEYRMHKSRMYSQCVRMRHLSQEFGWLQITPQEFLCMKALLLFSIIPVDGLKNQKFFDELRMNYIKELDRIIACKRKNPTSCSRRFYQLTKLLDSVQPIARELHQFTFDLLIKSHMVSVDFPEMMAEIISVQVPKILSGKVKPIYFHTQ
Test: Androgen Receptor ELISA assay (PathScan AR ELISA) in VCaP cells: AR degradation, Dmax and DC50
Type: cell-based
Method in brief: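 VCaP cells in phenol red-free RPMI with 5% charcoal-stripped FBS were grown at least 3 days, then given compound as 7 half-log doses in 0.1% DMSO with 0.1 nM R1881 for 24 h. Lysates went into a sandwich AR ELISA with TMB read at 450 nm.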

[1] = VCaP cells; Table 36; read-out: VCaP DC50
[2] = VCaP, VCaP cells; Table 36; read-out: VCaP Dmax (%)
[3] = read-out: VCaP DC50; VCaP cells; Table 36

| DC50 [1] [nM] | Dmax [2] [%] | SMILES | DC50 [3] [nM] | other results |
| --- | --- | --- | --- | --- |
| < 50 | > 71 | Cc1ncsc1-c1ccc(C(CO)NC(=O)C2C[C@@H](O)CN2C(=O)[C@@H](NC(=O)COCCN2CCN(c3ccc(C(=O)N[C@H]4C(C)(C)[C@H](Oc5ccc(C#N)c(Cl)c5)C4(C)C)cn3)CC2)C(C)(C)C)cc1 (stereo partly drawn) [Example 671, N-((1r,3r)-3-(3-chloro-4-cyanophenoxy)-2,2,4,4-tetramethylcyclobutyl)-6-(4-(2-(2-(((S)-1-((2S,4R)-4-hydroxy-2-((2-hydroxy-1-(4-(4-methylthiazol-5-yl)phenyl)ethyl)carbam-oyl)pyrrolidin-1-yl)-3,3-dimethyl-1-oxobutan-2-yl)amino)-2-oxoethoxy)ethyl)pipera-zin-1-yl)nicotinamide] |  |  |
| < 50 | 51 to 70 | Cc1ncsc1-c1ccc(CNC(=O)[C@@H]2C[C@@H](O)CN2C(=O)[C@@H](NC(=O)CN2CCC3(CC2)CCN(c2ccc(C(=O)N[C@H]4C(C)(C)[C@H](Oc5ccc(C#N)c(Cl)c5)C4(C)C)cn2)CC3)C(C)(C)C)cc1 [Example 672, N-((1r,3r)-3-(3-chloro-4-cyanophenoxy)-2,2,4,4-tetramethylcyclobutyl)-6-(9-(2-(((S)-1-((2S,4R)-4-hydroxy-2-((4-(4-methylthiazol-5-yl)benzyl)carbamoyl)pyr-rolidin-1-yl)-3,3-dimethyl-1-oxobutan-2-yl)amino)-2-oxoethyl)-3,9-diazaspiro[5.5]undecan-3-yl)nicotinamide] |  |  |
| < 50 | > 71 | C[C@H](NC(=O)[C@@H]1C[C@@H](O)CN1C(=O)[C@@H](NC(=O)COCCN1CCN(c2ccc(C(=O)N[C@H]3C(C)(C)[C@H](Oc4ccc(C#N)c(Cl)c4)C3(C)C)cn2)CC1)C(C)(C)C)c1ccc(-c2scnc2CO)cc1 [Example 673, N-((1r,3r)-3-(3-chloro-4-cyanophenoxy)-2,2,4,4-tetramethylcyclobutyl)-6-(4-(2-(2-(((S)-1-((2S,4R)-4-hydroxy-2-(((S)-1-(4-(4-(hydroxymethyl)thiazol-5-yl)phenyl)ethyl)carbam-oyl)pyrrolidin-1-yl)-3,3-dimethyl-1-oxobutan-2-yl)amino)-2-oxoethoxy)ethyl)pipera-zin-1-yl)nicotinamide] |  |  |
|  |  | Cc1ncsc1-c1ccc([C@H](C)NC(=O)[C@@H]2C[C@@H](O)CN2C(=O)[C@@H](NC(=O)CN2CCO[C@H](CN3CCO[C@H](COc4ccc(N5C(=S)N(c6ccc(C#N)c(C(F)(F)F)c6)C(=O)C5(C)C)cc4)C3)C2)C(C)(C)C)cc1 [Example 675, (2S,4R)-1-((S)-2-(2-((R)-2-(((S)-2-((4-(3-(4-cyano-3-(trifluoromethyl)phenyl)-5,5-dimethyl-4-oxo-2-thioxoimidazolidin-1-yl)phenoxy)methyl)mor-pholino)methyl)mor-pholino)acetamido)-3,3-dimethylbutanoyl)-4-hydroxy-N-((S)-1-(4-(4-methylthiazol-5-yl)phenyl)ethyl)pyrrolidine-2-carboxamide] | > 501 |  |
|  |  | Cc1ncsc1-c1ccc([C@H](C)NC(=O)[C@@H]2C[C@@H](O)CN2C(=O)[C@@H](NC(=O)CN2CCO[C@@H](CN3CCO[C@H](COc4ccc(N5C(=O)N(c6ccc(C#N)c(C(F)(F)F)c6)C(=O)C5(C)C)cc4)C3)C2)C(C)(C)C)cc1 [Example 676, (2S,4R)-1-((S)-2-(2-((S)-2-(((S)-2-((4-(3-(4-cyano-3-(trifluoromethyl)phenyl)-5,5-dimethyl-4-oxo-2-thioxoimidazolidin-1-yl)phenoxy)methyl)mor-pholino)methyl)mor-phpolino)acetamido)-3,3-dimethylbutanoyl)-4-hydroxy-N-((S)-1-(4-(4-methylthiazol-5-yl)phenyl)ethyl)pyrrolidine-2-carboxamide] | > 501 |  |
|  |  | Cc1ncsc1-c1ccc([C@H](C)NC(=O)[C@@H]2C[C@@H](O)CN2C(=O)[C@@H](NC(=O)OCc2ccccc2)[C@@H](C)OCCCCCCOc2ccc(N3C(=O)N(c4ccc(C#N)c(C(F)(F)F)c4)C(=O)C3(C)C)cc2)cc1 [Example 677, benzyl ((2S,3R)-3-((6-(4-(3-(4-cyano-3-(trifluoromethyl)phenyl)-5,5-dimethyl-4-oxo-2-thioxoimidazolidin-1-yl)phenoxy)hexyl)oxy)-1-((2S,4R)-4-hydroxy-2-(((S)-1-(4-(4-methylthiazol-5-yl)phenyl)ethyl)carbam-oyl)pyrrolidin-1-y)-1-oxobutan-2-yl)carbamate] | > 501 |  |
| > 501 |  | Cc1ncsc1-c1ccc([C@H](C)NC(=O)[C@@H]2C[C@@H](O)CN2C(=O)[C@@H](NC(=O)COCCN(C)CCCc2ccc(C(=O)N[C@H]3C(C)(C)[C@H](Oc4ccc(C#N)c(Cl)c4)C3(C)C)nc2)C(C)(C)C)cc1 [Example 678, N-((1r,3r)-3-(3-chloro-4-cyanophenoxy)-2,2,4,4-tetramethylcyclobutyl)-5-(3-((2-(2-(((S)-1-((2S,4R)-4-hydroxy-2-(((S)-1-(4-(4-methylthiazol-5-yl)phenyl)ethyl)carbam-oyl)pyrrolidin-1-yl)-3,3-dimethyl-1-oxobutan-2-yl)amino)-2-oxoethoxy)ethyl)(meth-yl)amino)propyl)picolin-amide] |  |  |
| > 501 |  | Cc1ncsc1-c1ccc([C@H](C)NC(=O)[C@@H]2C[C@@H](O)CN2C(=O)[C@@H](NC(=O)C(=O)N2CCN(CCOc3ccc(C(=O)N[C@H]4C(C)(C)[C@H](Oc5ccc(C#N)c(C(F)(F)F)c5)C4(C)C)cc3)CC2)C(C)(C)C)cc1 [Example 679, (2S,4R)-1-((S)-2-(2-(4-(2-(4-(((1r,3r)-3-(4-cyano-3-(trifluoromethyl)phenoxy)-2,2,4,4-tetramethylcyclobutyl)carbamoyl)phenoxy)eth-yl)piperazin-1-yl)-2-oxoacetamido)-3,3-dimethylbutanoyl)-4-hydroxy-N-((S)-1-(4-(4-methylthiazol-5-yl)phenyl)ethyl)pyrrolidine-2-carboxamide] |  |  |
| < 50 |  | Cc1cc(O[C@H]2C(C)(C)[C@H](NC(=O)c3ccc(N4CCN(CCOCC(=O)N[C@H](C(=O)N5C[C@H](O)C[C@H]5C(=O)N[C@@H](C)c5ccc(-c6scnc6C)cc5)C(C)(C)C)CC4)nc3)C2(C)C)ccc1C#N [Example 680, N-((1r,3r)-3-(4-cyano-3-methylphenoxy)-2,2,4,4-tetramethylcyclobutyl)-6-(4-(2-(2-(((S)-1-((2S,4R)-4-hydroxy-2-(((S)-1-(4-(4-methylthiazol-5-yl)phenyl)ethyl)carbam-oyl)pyrrolidin-1-yl)-3,3-dimethyl-1-oxobutan-2-yl)amino)-2-oxoethoxy)ethyl)pipera-zin-1-yl)nicotinamide] |  | Dmax (VCaP, read-out: VCaP Dmax (%), VCaP cells; Table 36): > 71% |

| SMILES | DC50 [1] [nM] | Dmax [2] [%] | DC50 [3] [nM] | other results |
| --- | --- | --- | --- | --- |
| Cc1ncsc1-c1ccc([C@H](C)NC(=O)C2C[C@@H](O)CN2C(=O)[C@@H](NC(=O)CN2CCN(CCC3(c4ccc(C(=O)N[C@H]5C(C)(C)[C@H](Oc6ccc(C#N)c(C(F)(F)F)c6)C5(C)C)cc4)COC3)CC2)C(C)(C)C)cc1 (stereo partly drawn) [Example 674, (2S,4R)-1-((S)-2-(2-(4-(2-(3-(4-(((1r,3r)-3-(4-cyano-3-(trifluoromethyl)phenoxy)-2,2,4,4-tetramethylcyclobutyl)carbamoyl)phenyl)oxetan-3-yl)ethyl)piperazin-1-yl)acetamido)-3,3-dimethylbutanoyl)-4-hydroxy-N-((S)-1-(4-(4-methylthiazol-5-yl)phenyl)ethyl)pyrrolidine-2-carboxamide] | < 50 |  |  | Dmax (VCaP, read-out: VCaP Dmax (%)): 51 to 70% |
